Experimental findings from patent US20230091225A1, “Bifunctional chimeric heterocyclic compounds for targeted degradation of androgen receptors and use thereof” (HINOVA PHARMACEUTICALS INC., priority 2019, published 2023) are described below.

The test system of one assay is LNCaP/AR cells. The experiment in a line: Inhibition of proliferation of LNCaP/AR prostate cancer cells (CCK-8). Type of assay: cell-based. Particulars: 144 h; proliferation of LNCap/AR cells, 6 days, CCK-8; read-out: IC50.
As for `Cc1ncsc1-c1ccc([C@H](C)NC(=O)[C@@H]2C[C@@H](O)CN2C(=O)[C@@H](NC(=O)COCCCC#Cc2ccc3c(c2)CN([C@H]2C(C)(C)[C@H](Oc4ccc(C#N)c(Cl)c4)C2(C)C)C3=O)C(C)(C)C)cc1` [Compound 21], the IC50 (as a rule, the concentration that gives 50% inhibition) was less than 100 nM.
On to `Cc1ncsc1-c1ccc([C@H](C)NC(=O)[C@@H]2C[C@@H](O)CN2C(=O)[C@@H](NC(=O)COCCCCC#Cc2ccc3c(c2)CN([C@H]2C(C)(C)[C@H](Oc4ccc(C#N)c(Cl)c4)C2(C)C)C3=O)C(C)(C)C)cc1` [Compound 29], for which the IC50 is less than 100 nM.
`CC1(C)[C@H](Oc2ccc(C#N)c(Cl)c2)C(C)(C)[C@H]1N1Cc2cc(C#Cc3cnn(C4CN(c5cc6c(cc5F)C(=O)N(C5CCC(=O)NC5=O)C6=O)C4)c3)ccc2C1=O` (stereo partly shown) [Compound 45]: the IC50 was more than 1000 nM.
On to `CC1(C)[C@H](Oc2ccc(C#N)c(Cl)c2)C(C)(C)[C@H]1N1Cc2cc(C#CC3CCN(C4CCN(c5ccc6c(c5)C(=O)N(C5CCC(=O)NC5=O)C6=O)CC4)CC3)ccc2C1=O` (stereo partly shown) [Compound 52], for which the half-maximal inhibitory concentration (IC50) fell in the range of 100 to 500 nM.

The assay is the same for the next values; noted with them: LNCaP/AR, 144 h.
Turning to `Cc1ncsc1-c1ccc([C@H](C)NC(=O)[C@@H]2C[C@@H](O)CN2C(=O)[C@@H](NC(=O)COCCOC(C)C#Cc2ccc3c(c2)CN([C@H]2C(C)(C)[C@H](Oc4ccc(C#N)c(Cl)c4)C2(C)C)C3=O)C(C)(C)C)cc1` (stereo partly shown) [Compound 37], the IC50 is less than 100 nM.
Regarding `Cc1ncsc1-c1ccc([C@H](C)NC(=O)[C@@H]2C[C@@H](O)CN2C(=O)[C@@H](NC(=O)CCN2CC(CC#Cc3ccc4c(c3)CN([C@H]3C(C)(C)[C@H](Oc5ccc(C#N)c(Cl)c5)C3(C)C)C4=O)C2)C(C)(C)C)cc1` [Compound 44], the IC50 was 100 to 500 nM.

Staying with this assay, now noted: proliferation of LNCap/AR cells, 6 days, CCK-8; read-out: IC50.
On to “2-chloro-4-((1r,4r)-4-(2-(4-((4-(3-(2,6-dioxopiperidin-3-yl)-2-methyl-4-oxo-3,4-dihydroquinazoline-7-yl)piperazin-1-yl)methyl)piperidin-1-yl)-5-oxo-5H-pyrrolo[3,4-b]pyridin-6(7H)-yl)cyclohexyl)oxy)benzonitrile [Compound 309]”, for which the IC50 lay in the range of 100 to 500 nM.
In the case of `Cc1ncsc1-c1ccc([C@H](C)NC(=O)[C@@H]2C[C@@H](O)CN2C(=O)[C@@H](NC(=O)C2(C(=O)NCCCC#Cc3ccc4c(c3)CN(C3C(C)(C)C(Oc5ccc(C#N)c(Cl)c5)C3(C)C)C4=O)CC2)C(C)(C)C)cc1` (stereo partly shown) [Compound 25], the IC50 was less than 100 nM.
Consider `Cc1ncsc1-c1ccc([C@H](C)NC(=O)[C@@H]2C[C@@H](O)CN2C(=O)[C@@H](NC(=O)COCCCCn2cc(-c3ccc4c(c3)CN([C@H]3C(C)(C)[C@H](Oc5ccc(C#N)c(Cl)c5)C3(C)C)C4=O)nn2)C(C)(C)C)cc1` [Compound 30, (2s,4r)-1-((s)-2-(2-(4-(4-(2-((1r,3r)-3-(3-chloro-4-cyanophenoxy)-2,2,4,4-tetramethylcyclobutyl)-1-oxoisobutanol-5-yl)-1H-1,2,3-triazol-1-yl)butoxy)acetamido)-3,3-dimethylbutyryl)-4-hydroxy-N-((S)-1-(4-(4-methylthiazol-5-yl)phenyl)ethyl)pyrrolidine-2-carboxamide], for which the IC50 is 100 to 500 nM.
As for `Cc1ncsc1-c1ccc([C@H](C)NC(=O)[C@@H]2C[C@@H](O)CN2C(=O)[C@@H](NC(=O)C2(OCCCCC#Cc3ccc4c(c3)CN(C3C(C)(C)C(Oc5ccc(C#N)c(Cl)c5)C3(C)C)C4=O)CC2)C(C)(C)C)cc1` (stereo partly shown) [Compound 41], the IC50 was less than 100 nM.

For another assay, the target named is T1, androgen receptor (AR) (Homo sapiens, UniProt P10275).
T1 sequence (P10275 1-920): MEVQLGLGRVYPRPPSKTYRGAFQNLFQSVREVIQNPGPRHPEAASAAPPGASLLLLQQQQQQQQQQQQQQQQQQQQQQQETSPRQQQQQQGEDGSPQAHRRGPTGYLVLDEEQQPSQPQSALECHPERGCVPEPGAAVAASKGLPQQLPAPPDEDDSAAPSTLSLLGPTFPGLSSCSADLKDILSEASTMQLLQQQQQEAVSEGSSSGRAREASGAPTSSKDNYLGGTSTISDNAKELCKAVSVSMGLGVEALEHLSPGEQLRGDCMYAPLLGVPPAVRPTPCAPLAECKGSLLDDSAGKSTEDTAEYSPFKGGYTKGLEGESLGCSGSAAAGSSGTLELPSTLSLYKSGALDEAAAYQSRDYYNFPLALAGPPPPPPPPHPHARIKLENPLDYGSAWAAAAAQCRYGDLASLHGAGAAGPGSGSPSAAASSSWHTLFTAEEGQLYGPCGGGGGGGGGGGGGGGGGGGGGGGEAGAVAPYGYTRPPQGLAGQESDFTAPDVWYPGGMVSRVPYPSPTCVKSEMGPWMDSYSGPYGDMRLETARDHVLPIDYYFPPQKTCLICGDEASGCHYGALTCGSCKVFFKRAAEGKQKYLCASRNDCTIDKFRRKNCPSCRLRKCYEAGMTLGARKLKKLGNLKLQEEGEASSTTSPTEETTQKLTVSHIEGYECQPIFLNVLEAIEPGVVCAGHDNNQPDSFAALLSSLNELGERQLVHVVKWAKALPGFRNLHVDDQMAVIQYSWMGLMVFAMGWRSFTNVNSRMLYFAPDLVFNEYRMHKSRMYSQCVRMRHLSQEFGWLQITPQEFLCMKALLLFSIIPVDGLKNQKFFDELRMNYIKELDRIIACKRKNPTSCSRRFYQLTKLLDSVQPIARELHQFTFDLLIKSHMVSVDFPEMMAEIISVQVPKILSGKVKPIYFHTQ
Put plainly: Degradation of androgen receptor (AR) protein in VCaP cells by ELISA. Type of assay: cell-based. Particulars: AR degradation, VCaP cells, 16 h, ELISA, Table 3-2; read-out: DC50.
With `N#Cc1ccc(O[C@H]2CC[C@H](NC(=O)c3cnc(N4CCC(CN5CCC6(CC5)CN(c5cc7c(cc5F)C(=O)N(C5CCC(=O)NC5=O)C7=O)C6)CC4)nn3)CC2)cc1Cl` (stereo partly shown) [Compound 158], the DC50 (in general, the concentration at which degradation of the target reaches its halfway point) is less than 10 nM.

Staying with this assay, now noted: VCaP.
As to `N#Cc1ccc(O[C@H]2CC[C@H](NC(=O)c3cnc(N4CCC(CN5CCC6(CC5)CN(c5cc7c(cc5F)C(=O)N(C5CCC(=O)NC5=O)C7=O)C6)CC4)nn3)CC2)cc1Cl` (stereo partly shown) [Compound 158], the Dmax (as a rule, the largest share of the target that was removed) was more than 80%.

The target in another assay is T1, androgen receptor (AR). The experiment in a line: Degradation of androgen receptor (AR) protein in VCaP cells by Western blot. It is filed as cell-based. As to conditions: percentage of degraded AR at 100 nM, VCaP cells, 16 h. The method, boiled down: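 AR and β-actin levels were read by Western blot with ECL detection, loading 30 μg lysate protein per well. Before lysis, VCaP cells seeded at 5×10^5/well and grown overnight were exposed to compound for 16 h, two wells per concentration, keeping DMSO at 0.1%.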
For orientation: In western blotting, separated proteins are transferred to a membrane and probed.
`N#Cc1ccc(O[C@H]2CC[C@H](NC(=O)c3cnc(N4CCC(CN5CCC6(CC5)CN(c5cc7c(cc5F)C(=O)N(C5CCC(=O)NC5=O)C7=O)C6)CC4)nn3)CC2)cc1Cl` (stereo partly shown) [Compound 158]: the inhibition (as a rule, how much of the control response was suppressed) at 0.1 µM is more than 80%.
As for `CC1(C)[C@H](Oc2ccc(C#N)c(Cl)c2)C(C)(C)[C@H]1N1Cc2nc(C#CC3CCN(C4CN(c5cc6c(cc5F)C(=O)N(C5CCC(=O)NC5=O)C6=O)C4)CC3)ccc2C1=O` (stereo partly shown) [Compound 318, 2-Chloro-4-((1r,3r)-3-(2-((1-(1-(2-(2,6-dioxopiperidin-3-yl)-6-fluoro-1,3-dioxoisoindolin-5-yl)azitidin-3-yl)piperidine-4-yl)ethynyl)-5-oxo-5H-pyrrolino [3,4-b]pyridin-6(7H)-yl)-2,2,4,4-tetramethylcyclobutoxy)benzonitrile], the inhibition at 0.1 µM is 50 to 79%.
The compound `CC1(C)[C@H](Oc2ccc(C#N)c(Cl)c2)C(C)(C)[C@H]1N1Cc2nc(C#CC3CN(C4CCN(c5ccc6c(c5)C(=O)N(C5CCC(=O)NC5=O)C6=O)CC4)C3)ccc2C1=O` (stereo partly shown) [Compound 319, 2-Chloro-4-((1r,3r)-3-(2-((1-(1-(2-(2,6-dioxopiperidin-3-yl)-1,3-dioxoisoindolin-5-yl)piperidine-4-yl)azelaic acid-3-yl)ethynyl)-5-oxo-5H-pyrrolo[3,4-b]pyridin-6(7H)-yl)-2,2,4,4-tetramethylcyclobutoxy)benzonitrile] displayed an inhibition at 0.1 µM of less than 25%.
In turn, `CC1(C)[C@H](Oc2ccc(C#N)c(Cl)c2)C(C)(C)[C@H]1N1Cc2nc(C#CC3CN(C4CCN(c5cc6c(cc5F)C(=O)N(C5CCC(=O)NC5=O)C6=O)CC4)C3)ccc2C1=O` (stereo partly shown) [Compound 320, 2-Chloro-4-((1r,3r)-3-(2-((1-(1-(2-(2,6-dioxopiperidin-3-yl)-6-fluoro-1,3-dioxoisoindolin-5-yl)piperidine-4-yl)azelaic acid-3-yl)ethynyl)-5-oxo-5H-pyrrolino[3,4-b]pyridin-6(7H)-yl)-2,2,4,4-tetramethylcyclobutoxy)benzonitrile] showed an inhibition at 0.1 µM of 50 to 79%.
`N#Cc1ccc(O[C@H]2CC[C@H](N3Cc4nc(C#CC5CCN(C6CCN(c7ccc8c(c7)C(=O)N(C7CCC(=O)NC7=O)C8=O)CC6)CC5)ccc4C3=O)CC2)cc1Cl` (stereo partly shown) [Compound 323]: the inhibition at 0.1 µM is less than 25%.
Compound `N#Cc1ccc(O[C@H]2CC[C@H](N3Cc4nc(C#CC5CCN(C6CCN(c7cc8c(cc7F)C(=O)N(C7CCC(=O)NC7=O)C8=O)CC6)CC5)ccc4C3=O)CC2)cc1Cl` (stereo partly shown) [Compound 324, 2-Chloro-4-((1r,4r)-4-(2-((1′-(2,6-dioxopiperidin-3-yl)-6-fluoro-1,3-dioxoisoindolin-5-yl)-1,4′-dipiperidine-4-yl)ethynyl)-5-oxo-5H-pyrrolo[3,4-b]pyridin-6(7H)-cyclohexaneoxy)benzonitrile] had an inhibition at 0.1 µM of 25 to 49%.
For the compound `CC1(C)[C@H](Oc2ccc(C#N)c(Cl)c2)C(C)(C)[C@H]1N1Cc2nc(C#C[C@H]3CC[C@H](N4CCN(c5cc6c(cc5F)C(=O)N(C5CCC(=O)NC5=O)C6=O)CC4)CC3)ccc2C1=O` (stereo partly shown) [Compound 326], the inhibition at 0.1 µM was in the range of 50 to 79%.
In turn, `CC1(C)[C@H](Oc2ccc(C#N)c(Cl)c2)C(C)(C)[C@H]1N1Cc2nc(C#CC3CC(NC4CCN(c5ccc6c(c5)C(=O)N(C5CCC(=O)NC5=O)C6=O)CC4)C3)ccc2C1=O` (stereo partly shown) [Compound 327, 2-Chloro-4-((1r,3r)-3-(2-((3-(1-(2-(2,6-dioxopiperidin-3-yl)-1,3-dioxoisoindolin-5-yl)piperidine-4-ylamino)cyclobutyl)ethynyl)-5-oxo-5,7-dihydro-pyrrolo[3,4-b]pyridin-6-yl)-2,2,4,4-tetramethylcyclobutoxy)benzonitrile] returned an inhibition at 0.1 µM of 50 to 79%.
`CC1(C)[C@H](Oc2ccc(C#N)c(Cl)c2)C(C)(C)[C@H]1N1Cc2nc(C#CC3CC(NC4CCN(c5cc6c(cc5F)C(=O)N(C5CCC(=O)NC5=O)C6=O)CC4)C3)ccc2C1=O` (stereo partly shown) [Compound 329] yielded an inhibition at 0.1 µM of 50 to 79%.
Same read-out and setting: under `CN(C1CCN(c2ccc3c(c2)C(=O)N(C2CCC(=O)NC2=O)C3=O)CC1)C1CC(C#Cc2ccc3c(n2)CN([C@H]2C(C)(C)[C@H](Oc4ccc(C#N)c(Cl)c4)C2(C)C)C3=O)C1` (stereo partly shown) [Compound 331] stands 25 to 49%.
Take `CN(C1CCN(c2cc3c(cc2F)C(=O)N(C2CCC(=O)NC2=O)C3=O)CC1)C1CC(C#Cc2ccc3c(n2)CN([C@H]2C(C)(C)[C@H](Oc4ccc(C#N)c(Cl)c4)C2(C)C)C3=O)C1` (stereo partly shown) [Compound 332]: the inhibition at 0.1 µM fell in the range of 50 to 79%.
Compound `CC1(C)[C@H](Oc2ccc(C#N)c(Cl)c2)C(C)(C)[C@H]1N1Cc2nc(C#CC3CCN(CC4CCN(c5cc6c(cc5F)C(=O)N(C5CCC(=O)NC5=O)C6=O)CC4)CC3)ccc2C1=O` (stereo partly shown) [Compound 333] registered an inhibition at 0.1 µM of 50 to 79%.
Regarding `CC1(C)[C@H](Oc2ccc(C#N)c(Cl)c2)C(C)(C)[C@H]1N1Cc2nc(C#CC3CCN(CC4CN(c5cc6c(cc5F)C(=O)N(C5CCC(=O)NC5=O)C6=O)C4)CC3)ccc2C1=O` (stereo partly shown) [Compound 334], the inhibition at 0.1 µM is more than 80%.
